Values of other authors as cited in US10342775B2, “Vitamin A for parenteral administration” (FRESENIUS KABI DEUTSCHLAND GMBH, priority 2015, dated 2019).

solubility in water: practically insoluble in water
Structure (SMILES): CCCCCCCCCCCCCCCC(=O)OC/C=C(C)/C=C/C=C(C)/C=C/C1=C(C)CCCC1(C)C [retinol palmitate]
